Assay results reported in ChEMBL document CHEMBL1201862, “PubChem BioAssay data set” (2004).
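In this assay, cells in 96-well plates receive the compound at five concentrations for 48 hours. Endpoints are linearly interpolated between the surrounding concentrations. Abbreviation: GI50, concentration required for 50% inhibition of growth.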 Activity calls are given as the source filed them. No stated cut-off is given here; in the data, active = GI50 up to about 1.1 µM and inactive = higher.

Columns and labels:
Assay in all cases: NCI-60 cell line screen, 48 h
786-0 = tested on: 786-0
A498 = tested on: A498
A549 = tested on: A549
ACHN = tested on: ACHN
BT-549 = tested on: BT-549
CAKI-1 = tested on: CAKI-1
CCRF-CEM = tested on: CCRF-CEM
COLO 205 = tested on: COLO 205
DU-145 = tested on: DU-145
EKVX = tested on: EKVX
HCC 2998 = tested on: HCC 2998
HCT-116 = tested on: HCT-116
HCT-15 = tested on: HCT-15
HL-60 = tested on: HL-60
HOP-62 = tested on: HOP-62
HOP-92 = tested on: HOP-92
HT-29 = tested on: HT-29
Hs-578T = tested on: Hs-578T
IGROV-1 = tested on: IGROV-1
K562 = tested on: K562
KM12 = tested on: KM12
LOX IMVI = tested on: LOX IMVI
M14 = tested on: M14
MCF7 = tested on: MCF7
MDA-MB-231 = tested on: MDA-MB-231
MDA-MB-435 = tested on: MDA-MB-435
MDA-N = tested on: MDA-N
MOLT-4 = tested on: MOLT-4
Malme-3M = tested on: Malme-3M
NCI-H226 = tested on: NCI-H226
NCI-H23 = tested on: NCI-H23
NCI-H460 = tested on: NCI-H460
NCI-H522 = tested on: NCI-H522
OVCAR-3 = tested on: OVCAR-3
OVCAR-4 = tested on: OVCAR-4
OVCAR-5 = tested on: OVCAR-5
OVCAR-8 = tested on: OVCAR-8
PC-3 = tested on: PC-3
RPMI-8226 = tested on: RPMI-8226
RXF 393 = tested on: RXF 393
SF-268 = tested on: SF-268
SF-295 = tested on: SF-295
SF-539 = tested on: SF-539
SK-MEL-28 = tested on: SK-MEL-28
SK-MEL-2 = tested on: SK-MEL-2
SK-MEL-5 = tested on: SK-MEL-5
SK-OV-3 = tested on: SK-OV-3
SN12C = tested on: SN12C
SNB-19 = tested on: SNB-19
SNB-75 = tested on: SNB-75
SW-620 = tested on: SW-620
T47D = tested on: T47D
TK-10 = tested on: TK-10
U-251 = tested on: U-251
UACC-257 = tested on: UACC-257
UACC-62 = tested on: UACC-62
UO-31 = tested on: UO-31
NCI/ADR-RES = tested on: NCI/ADR-RES
SR = tested on: SR

C=C1C(=O)OC2/C=C(\C)C(O)CC(O)C(C)(O)CC(OC(=O)/C(C)=C/C)C12 (stereo unspecified)
GI50 (786-0): 41.5 µM (inactive)
GI50 (A498): 42.2 µM (inactive)
GI50 (A549): 53.6 µM (inactive)
GI50 (ACHN): 39.2 µM (inactive)
GI50 (BT-549): 26.1 µM (inactive)
GI50 (CAKI-1): 29 µM (inactive)
GI50 (CCRF-CEM): 34.3 µM (inactive)
GI50 (COLO 205): 57.8 µM (inactive)
GI50 (DU-145): 34.3 µM (inactive)
GI50 (EKVX): 43.1 µM (inactive)
GI50 (HCC 2998): 34.9 µM (inactive)
GI50 (HCT-116): 32.9 µM (inactive)
GI50 (HCT-15): 28.4 µM
GI50 (HL-60): 39.9 µM (inactive)
GI50 (HOP-62): > 100 µM (inactive)
GI50 (HOP-92): 41.9 µM (inactive)
GI50 (HT-29): 39.6 µM (inactive)
GI50 (Hs-578T): 44.2 µM (inactive)
GI50 (IGROV-1): 31.7 µM (inactive)
GI50 (K562): 32.6 µM (inactive)
GI50 (KM12): 29.6 µM (inactive)
GI50 (LOX IMVI): 32.3 µM (inactive)
GI50 (M14): 60.1 µM (inactive)
GI50 (MCF7): 56.8 µM (inactive)
GI50 (MDA-MB-231): 49.5 µM (inactive)
GI50 (MDA-MB-435): 36.5 µM (inactive)
GI50 (MDA-N): 37.3 µM (inactive)
GI50 (MOLT-4): 1.34 µM (inactive)
GI50 (Malme-3M): 50 µM (inactive)
GI50 (NCI-H226): 33.4 µM (inactive)
GI50 (NCI-H23): 46.9 µM (inactive)
GI50 (NCI-H460): 32.1 µM (inactive)
GI50 (NCI-H522): 28.1 µM (inactive)
GI50 (OVCAR-3): 44.2 µM (inactive)
GI50 (OVCAR-4): 45.2 µM (inactive)
GI50 (OVCAR-5): > 73.8 µM (inactive)
GI50 (OVCAR-8): 32.5 µM (inactive)
GI50 (PC-3): 46.1 µM (inactive)
GI50 (RPMI-8226): 23 µM (inactive)
GI50 (RXF 393): > 60.1 µM (inactive)
GI50 (SF-268): 42.3 µM (inactive)
GI50 (SF-295): 55.1 µM (inactive)
GI50 (SF-539): 42.4 µM (inactive)
GI50 (SK-MEL-28): 47.9 µM (inactive)
GI50 (SK-MEL-2): 43.1 µM (inactive)
GI50 (SK-MEL-5): 36.7 µM (inactive)
GI50 (SK-OV-3): 53.5 µM (inactive)
GI50 (SN12C): 39.8 µM (inactive)
GI50 (SNB-19): 66.5 µM (inactive)
GI50 (SNB-75): 38.2 µM (inactive)
GI50 (SW-620): 35.6 µM (inactive)
GI50 (T47D): 65.5 µM (inactive)
GI50 (TK-10): > 67.5 µM (inactive)
GI50 (U-251): 38.1 µM (inactive)
GI50 (UACC-257): 83.8 µM (inactive)
GI50 (UACC-62): 33.7 µM (inactive)
GI50 (UO-31): 44.6 µM (inactive)

CC(C)C1N(C)c2ccc(Cl)cc2[C@H]2c3ccccc3CCN12 (stereo partly specified)
GI50 (786-0): > 100 µM (inactive)
GI50 (A498): 78 µM (inactive)
GI50 (A549): 39 µM (inactive)
GI50 (ACHN): 82.2 µM (inactive)
GI50 (BT-549): > 100 µM (inactive)
GI50 (CCRF-CEM): 97.9 µM (inactive)
GI50 (COLO 205): 36.4 µM (inactive)
GI50 (DU-145): 53.5 µM (inactive)
GI50 (EKVX): 28 µM (inactive)
GI50 (HCT-116): 40.2 µM (inactive)
GI50 (HCT-15): 37.1 µM
GI50 (HL-60): 27.7 µM (inactive)
GI50 (HOP-62): > 100 µM (inactive)
GI50 (HOP-92): 24.9 µM (inactive)
GI50 (HT-29): 22.1 µM (inactive)
GI50 (Hs-578T): 25.8 µM (inactive)
GI50 (IGROV-1): 23.4 µM (inactive)
GI50 (K562): 71.8 µM (inactive)
GI50 (KM12): 50.9 µM (inactive)
GI50 (LOX IMVI): 31.6 µM (inactive)
GI50 (M14): 55.1 µM (inactive)
GI50 (MCF7): 30.7 µM (inactive)
GI50 (MDA-MB-231): 24.4 µM (inactive)
GI50 (MDA-MB-435): 23 µM (inactive)
GI50 (MDA-N): 26.1 µM (inactive)
GI50 (MOLT-4): 37.8 µM (inactive)
GI50 (NCI-H226): 14.3 µM (inactive)
GI50 (NCI-H23): > 100 µM (inactive)
GI50 (NCI-H460): 94.8 µM (inactive)
GI50 (NCI-H522): 21.9 µM (inactive)
GI50 (NCI/ADR-RES): > 100 µM (inactive)
GI50 (OVCAR-3): 27.2 µM (inactive)
GI50 (OVCAR-4): 69.2 µM (inactive)
GI50 (OVCAR-5): 38.3 µM (inactive)
GI50 (OVCAR-8): > 100 µM (inactive)
GI50 (PC-3): 62.4 µM (inactive)
GI50 (RPMI-8226): 18.7 µM (inactive)
GI50 (RXF 393): 47.5 µM (inactive)
GI50 (SF-268): > 100 µM (inactive)
GI50 (SF-295): 18.2 µM (inactive)
GI50 (SF-539): > 100 µM (inactive)
GI50 (SK-MEL-28): 54.8 µM (inactive)
GI50 (SK-MEL-2): 25.9 µM (inactive)
GI50 (SK-OV-3): > 100 µM (inactive)
GI50 (SN12C): 45.2 µM (inactive)
GI50 (SNB-19): > 100 µM (inactive)
GI50 (SNB-75): 61.8 µM (inactive)
GI50 (SR): 29.9 µM (inactive)
GI50 (SW-620): 97.3 µM (inactive)
GI50 (TK-10): 89.9 µM (inactive)
GI50 (U-251): 61.5 µM (inactive)
GI50 (UACC-257): 30.4 µM (inactive)
GI50 (UACC-62): 25.4 µM (inactive)
GI50 (UO-31): 98.4 µM (inactive)
